According to patent publication US20260042764A1, “COMPOSITIONS AND METHODS FOR INHIBITION OF KRAS” (TheRas, Inc., priority 2022, published 2026):

How the values were obtained:
[1] = molecular target: T1, Avi-KRAS G12V (1-169) GppNHp/RAF1 RBD-3xFLAG (52-151) (Homo sapiens, UniProt P01116, G12V); test: Raf1-KRAS G12V-GppNHP disruption HTRF assay (Biological Example 1); format: binding
T1 construct: Avi-KRAS G12V (1-169)
How it was run: (§1)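 Protein mix, 1 h RT, 700 rpm; reagent mix, 1 h RT, 700 rpm; HTRF read. Buffer Tris pH 7.5/NaCl/MgCl2/BSA/Tween, 10% DMSO. Output % activity, DMSO = 100%.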

[2] = molecular target: T2, Avi-KRAS G12R (1-169) GppNHp/RAF1 RBD-3xFLAG (52-151) (Homo sapiens, UniProt P01116, G12R); test: Raf1-KRAS G12R-GppNHP disruption HTRF assay (Biological Example 1); format: binding
T2 construct: Avi-KRAS G12R (1-169)
T2 sequence (P01116 1-169 isoform P01116-2 G12R): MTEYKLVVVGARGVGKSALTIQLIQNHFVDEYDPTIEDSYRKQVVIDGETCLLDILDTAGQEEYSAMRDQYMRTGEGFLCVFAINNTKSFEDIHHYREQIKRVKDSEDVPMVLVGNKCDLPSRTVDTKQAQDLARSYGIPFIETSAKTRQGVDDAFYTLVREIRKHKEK
How it was run: as §1

SW620 cells (KRAS G12V) = test: Cell-based pERK HTRF assay in SW620 cell (Biological Example 4); details: pERK HTRF
How it was run: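 SW620 (KRAS G12V) cells seeded at 3×10^4/well in RPMI, 10% FBS, then treated next day for 4 h with a 9-point half-log series from 1 μM top (0.25% DMSO). Lysates analyzed for pERK by HTRF (Eu cryptate/d2 antibodies, 4–24 h at room temperature), excitation 320 nm, emission 615 nm.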

GP2d cells (KRAS G12D) = test: Cell-based pERK HTRF assay in GP2d cell (Biological Example 2); details: GP2d (KRAS G12D) cells, pERK HTRF
How it was run: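 GP2d (KRAS G12D) cells were plated in DMEM/10% FBS and treated the next day for 60 min with compounds. Dosing used 9-point half-log series starting at 1 μM or 100 nM in 0.25% DMSO. Lysates were read by HTRF pERK (d2/Eu cryptate antibodies) after 4–24 h at room temperature, with excitation at 320 nm and emission at 615 nm.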

[3] = molecular target: T3, Avi-KRAS WT (1-169) GppNHp/RAF1 RBD-3xFLAG (52-151) (Homo sapiens, UniProt P01116); test: Raf1-KRAS WT-GppNHP disruption HTRF assay (Biological Example 1); format: binding
T3 construct: Avi-KRAS WT (1-169)
T3 sequence (P01116 1-169 isoform P01116-2): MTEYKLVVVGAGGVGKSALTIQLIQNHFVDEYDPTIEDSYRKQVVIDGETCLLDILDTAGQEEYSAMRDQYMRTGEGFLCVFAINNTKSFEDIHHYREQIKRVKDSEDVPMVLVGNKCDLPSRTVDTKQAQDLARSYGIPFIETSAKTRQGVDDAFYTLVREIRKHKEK
How it was run: as §1

[4] = molecular target: T4, Avi-KRAS G12D (1-169) GppNHp/RAF1 RBD-3xFLAG (52-151) (Homo sapiens, UniProt P01116, G12D); test: Raf1-KRAS G12D-GppNHP disruption HTRF assay (Biological Example 1); format: binding
T4 construct: Avi-KRAS G12D (1-169)
T4 sequence (P01116 1-169 isoform P01116-2 G12D): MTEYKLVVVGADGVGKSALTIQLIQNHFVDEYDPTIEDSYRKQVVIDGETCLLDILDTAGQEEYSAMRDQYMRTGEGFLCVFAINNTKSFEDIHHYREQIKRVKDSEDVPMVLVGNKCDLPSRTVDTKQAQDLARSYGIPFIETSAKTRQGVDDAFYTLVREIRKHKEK
How it was run: as §1

[5] = KRAS G12V, GppNHp-loaded, class symbols
[6] = KRAS G12R, GppNHp-loaded, class symbols
[7] = Homo sapiens, SW-620, SW620 (KRAS G12V) cells, class symbols
[8] = KRAS WT, GppNHp-loaded, class symbols
[9] = KRAS G12D, GppNHp-loaded, class symbols
[10] = Homo sapiens, SW-620, SW620 (KRAS G12V) cells
[11] = KRAS G12V, GppNHp-loaded, Table 11
[12] = KRAS G12R, GppNHp-loaded, Table 11
[13] = KRAS WT, GppNHp-loaded, Table 11
[14] = KRAS G12D, GppNHp-loaded, Table 11

T1 sequence (P01116 1-169 isoform P01116-2 G12V): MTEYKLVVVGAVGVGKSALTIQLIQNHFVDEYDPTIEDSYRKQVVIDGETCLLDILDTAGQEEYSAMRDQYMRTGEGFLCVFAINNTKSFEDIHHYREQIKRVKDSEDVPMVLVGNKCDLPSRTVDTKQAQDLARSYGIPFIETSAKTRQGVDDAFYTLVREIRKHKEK

SMILES | IC50 [1, 5] | IC50 [2, 6] | IC50 (SW620 cells (KRAS G12V); [7]) | IC50 (GP2d cells (KRAS G12D); GP2d, class symbols) | IC50 [3, 8] | IC50 [4, 9] | IC50 ([1]; KRAS G12V-GppNHp/RAF1 RBD HTRF) | IC50 ([2]; KRAS G12R-GppNHp/RAF1 RBD HTRF) | IC50 (SW620 cells (KRAS G12V); [10]) | IC50 (GP2d cells (KRAS G12D); GP2d) | IC50 ([3]; KRAS WT-GppNHp/RAF1 RBD HTRF) | IC50 ([4]; KRAS G12D-GppNHp/RAF1 RBD HTRF) | also measured
CCN1CC[C@H](N(CC)c2nc(OC[C@@]34CCCN3C[C@H](F)C4)nc3c(F)c(-c4ccc(F)c5sc(N)c(C#N)c45)c(C(F)(F)F)cc23)C1=O (atropisomer, axis not shown) [Compound 694] | 100 to 1000 nM | 100 to 1000 nM | < 100 nM | < 100 nM | 100 to 1000 nM | < 100 nM |  |  |  |  |  |  | 
C[C@@H]1[C@H](N(C)c2nc(OC[C@@]34CCCN3C[C@H](F)C4)nc3c(F)c(-c4ccc(F)c5sc(N)c(C#N)c45)c(Cl)cc23)CCN1C(=O)C(C)(F)F [Compound 420] |  |  |  |  |  |  | 1000 to 10000 nM | 1000 to 10000 nM | 100 to 1000 nM | 100 to 1000 nM | 1000 to 10000 nM | 1000 to 10000 nM | 
CCN(c1nc(OC[C@@]23CCCN2C[C@H](F)C3)nc2c(F)c(-c3ccc(F)c4sc(N)c(C#N)c34)c(C(F)(F)F)cc12)[C@H]1CCN(C(=O)N2C[C@@H](F)[C@@H](F)C2)C1 (atropisomer, axis not shown) [Compound 609] | < 100 nM | < 100 nM | < 100 nM | < 100 nM | < 100 nM | < 100 nM |  |  |  |  |  |  | 
N#Cc1c(N)sc2c(F)ccc(-c3c(C(F)(F)F)cc4c(N5C6CCC5CS(=O)(=O)C6)nc(OC[C@@]56CCCN5C[C@H](F)C6)nc4c3F)c12 [Compound 320] |  |  |  |  |  |  | 1000 to 10000 nM | 1000 to 10000 nM | < 100 nM | < 100 nM | 100 to 1000 nM | 100 to 1000 nM | 
CCN(c1nc(OC[C@@]23CCCN2C[C@H](F)C3)nc2c(F)c(-c3ccc(F)c4sc(N)c(C#N)c34)c(C(F)(F)F)cc12)[C@H]1CCN(C(=O)[C@@H](C)CF)C1 (atropisomer, axis not shown) [Compound 710] | 100 to 1000 nM | < 100 nM | < 100 nM | < 100 nM | < 100 nM | < 100 nM |  |  |  |  |  |  | 
CCN(c1nc(OC[C@@]23CCCN2C[C@H](F)C3)nc2c(F)c(-c3ccc(F)c4sc(N)c(C#N)c34)c(C(F)(F)F)cc12)[C@H]1CCN(C(=O)C(F)F)C1 (atropisomer, axis not shown) [Compound 547] |  |  |  |  |  |  | < 100 nM | < 100 nM | < 100 nM | < 100 nM | < 100 nM | < 100 nM | 
CC[C@@H]1[C@H](N(C)c2nc(OC[C@@]34CCCN3C[C@H](F)C4)nc3c(F)c(-c4ccc(F)c5sc(N)c(C#N)c45)c(C(F)(F)F)cc23)CCN1C(=O)C1CC1 [Compound 434] |  |  |  |  |  |  | 1000 to 10000 nM | 1000 to 10000 nM | 100 to 1000 nM | 100 to 1000 nM | 100 to 1000 nM | 1000 to 10000 nM | 
C[C@@H]1[C@H](N(C)c2nc(OC[C@@]34CCCN3C[C@H](F)C4)nc3c(F)c(-c4ccc(F)c5sc(N)c(C#N)c45)c(C(F)(F)F)cc23)CCN1C(=O)C(C)(C)C [Compound 312] |  |  |  |  |  |  | 100 to 1000 nM | 100 to 1000 nM | < 100 nM | < 100 nM | 100 to 1000 nM | 100 to 1000 nM | 
CCN(c1nc(OC[C@@]23CCCN2C[C@H](F)C3)nc2c(F)c(-c3ccc(F)c4sc(N)c(C#N)c34)c(C(F)(F)F)cc12)[C@H]1C[C@H]2CCOC(=O)N2C1 (atropisomer, axis not shown) [Compound 664] | < 100 nM | < 100 nM | < 100 nM | < 100 nM | < 100 nM | < 100 nM |  |  |  |  |  |  | 
CCN(c1nc(OC[C@@]23CCCN2C[C@H](F)C3)nc2c(F)c(-c3ccc(F)c4sc(N)c(C#N)c34)c(C(F)(F)F)cc12)[C@H]1CC(=O)N(C2CC2)C1 [Compound 496] |  |  |  |  |  |  | 1000 to 10000 nM | 1000 to 10000 nM | 100 to 1000 nM | < 100 nM | 1000 to 10000 nM | 100 to 1000 nM | 
C[C@H]1[C@@H](N(C)c2nc(OC[C@@]34CCCN3C[C@H](F)C4)nc3c(F)c(-c4ccc(F)c5sc(N)c(C#N)c45)c(C(F)(F)F)cc23)CCN1C(=O)CC#N [Compound 252] |  |  |  |  |  |  |  |  | 100 to 1000 nM | 100 to 1000 nM |  |  | IC50 [1, 11]: 1000 to 10000 nM; IC50 [2, 12]: 1000 to 10000 nM; IC50 [3, 13]: 1000 to 10000 nM; IC50 [4, 14]: 1000 to 10000 nM
CC(=O)N1CC[C@@H](N(C)c2nc(OC[C@@]34CCCN3C[C@H](F)C4)nc3c(F)c(-c4ccc(F)c5sc(N)c(C#N)c45)c(C(F)(F)F)cc23)[C@H]1C (single isomer, unassigned) [Compound 192] |  |  |  |  |  |  |  |  |  |  |  |  | IC50 [1, 11]: > 10000 nM; IC50 [2, 12]: > 10000 nM; IC50 (SW620 cells (KRAS G12V); SW620 (KRAS G12V) cells): > 1000 nM; IC50 (GP2d cells (KRAS G12D)): > 1000 nM; IC50 [3, 13]: > 10000 nM; IC50 [4, 14]: > 10000 nM
CCN(c1nc(OC[C@@]23CCCN2C[C@H](F)C3)nc2c(F)c(-c3ccc(F)c4sc(N)c(C#N)c34)c(C(F)(F)F)cc12)[C@H]1CCN(C(=O)C2CC(OC)C2)C1 (stereo partly drawn) [Compound 777] | 100 to 1000 nM | < 100 nM | < 100 nM | < 100 nM | 100 to 1000 nM | < 100 nM |  |  |  |  |  |  | 
C[C@H]1[C@H](O)CCCN1c1nc(OC[C@@]23CCCN2C[C@H](F)C3)nc2c(F)c(-c3ccc(F)c4sc(N)c(C#N)c34)c(C(F)(F)F)cc12 [Compound 473] |  |  |  |  |  |  | 100 to 1000 nM | 100 to 1000 nM | < 100 nM | < 100 nM | 100 to 1000 nM | 100 to 1000 nM | 
CCN(c1nc(OC[C@@]23CCCN2C[C@H](F)C3)nc2c(F)c(-c3ccc(F)c4sc(N)c(C#N)c34)c(C(F)(F)F)cc12)[C@H]1CCN(C(=O)C2CCOCC2)C1 (atropisomer, axis not shown) [Compound 578] | < 100 nM | < 100 nM | < 100 nM | < 100 nM | < 100 nM | < 100 nM |  |  |  |  |  |  | 
CN(c1nc(OC[C@@]23CCCN2C[C@H](F)C3)nc2c(F)c(-c3ccc(F)c4sc(N)c(C#N)c34)c(C(F)(F)F)cc12)[C@H]1CCS(=O)(=O)C1 (single isomer, unassigned) [Compound 221] |  |  |  |  |  |  |  |  |  |  |  |  | IC50 [1, 11]: 100 to 1000 nM; IC50 [2, 12]: 100 to 1000 nM; IC50 (SW620 cells (KRAS G12V); SW620 (KRAS G12V) cells): < 100 nM; IC50 (GP2d cells (KRAS G12D)): < 100 nM; IC50 [3, 13]: 100 to 1000 nM; IC50 [4, 14]: 100 to 1000 nM
CN(C[C@@H](F)CO)c1nc(OC[C@@]23CCCN2C[C@H](F)C3)nc2c(F)c(-c3ccc(F)c4sc(N)c(C#N)c34)c(C(F)(F)F)cc12 [Compound 218] |  |  |  |  |  |  |  |  | < 100 nM | < 100 nM |  |  | IC50 [1, 11]: 100 to 1000 nM; IC50 [2, 12]: 100 to 1000 nM; IC50 [3, 13]: 100 to 1000 nM; IC50 [4, 14]: 100 to 1000 nM
